Tests used:
[1] = test system: α-smooth muscle actin (SMA) myofibroblast marker; assay: DMR model: IHC for SMA and keratocan, area of SMA-positive posterior fibrosis (QuPath); type: in vivo, rabbit
Protocol: The rabbits had general anaesthesia with 30 mg/kg ketamine hydrochloride and 5 mg/kg xylazine by IM injection. In addition, topical proparacaine hydrochloride 1% (Alcon, Ft Worth, TX, USA) was applied to each eye prior to the surgery. One cornea selected at random in each group either had sham surgery without Descemetorhexis or an 8 mm diameter central Descemet's membrane-endothelial excision. The time point of one month after surgery was selected for the study because myofibroblasts and fibrosis in the posterior cornea was maximal at this time point in a prior time course Descemetorhexis study (Sampaio et al., 2021). Descemetorhexis was performed as described in the prior study (Sampaio et al., 2021). Briefly, a wire lid speculum was placed into one eye of each rabbit and an 8 mm diameter gentian violet circle was marked on the epithelial surface for reference. A limbal entry incision was created with a 1.6 mm blade (Bausch and Lomb, Rochester, NY, USA) and 0.3 ml Healon OVD (Abbott Medical Optics Inc. Santa Ana, CA, USA) was injected into the anterior chamber. A reversed Sinskey hook (Katena, Denville, New Jersey, USA) was placed into the anterior chamber and an 8 mm diameter disc of Descemet's membrane and endothelium was excised underlying the 8 mm area previously marked on the anterior corneal surface, without a subsequent endothelial corneal transplant. No removal of Descemet's membrane or endothelium was performed in unwounded sham surgery eyes. Remaining Healon OVD was removed with a Simcoe irrigation and aspiration cannula (Bausch & Lomb, Storz, Rochester, NY, USA) and the anterior chamber was filled with balanced salt solution (BSS). A single 10-0 nylon suture was placed at the incision site to prevent leakage from the anterior chamber. One drop of ciprofloxacin (Alcon, Ft. Worth, TX, USA) was applied to the corneas immediately after surgery and four times a day until the epithelium entry wound healed at approximately 2 days.
The oral solution was prepared with 5 ml distilled water+50 ml ora-plus (suspending vehicle—Perrigo, Dublin, Ireland)+45 ml Ora-sweet (flavored syrup vehicle—Perrigo).
At one month after surgery and treatment, an intravenous injection of 100 mg/kg Beuthanasia (Shering-Plough, Kenilworth, NJ) was given for euthanasia with the animals under general anaesthesia. Sharp Westcott scissors (Fairfield, CT, USA) and 0.12 forceps (Storz, St. Louis, MO) were used to remove the corneo-scleral rims of the sham unwounded and DMR eyes without touching the cornea. Each cornea was set in the center of a 24×24×5 mm mold (Fisher Scientific, Pittsburgh, PA, USA) and the mold was filled in liquid OCT compound (Sakura Finetek, Torrance, CA, USA). The molds and cornea-scleral rims were quick frozen on dry ice and stored at −80° C. until sections were cut.
Each OCT block was bisected in the exact center of the cornea, and 8 μm thick transverse sections were cut from the central cornea within the previous DMR injury or unwounded sham surgery corneas with a cryostat (HM 505M; Micron GmbH, Walldorf, Germany) and three sections per slide were placed on 25 mm×75 mm×1 mm Superfrost Plus microscope slides (Fisher Scientific, Pittsburgh, PA, USA). Slides were maintained at −20° C. until immunohistochemistry.
Duplex immunohistochemistry (IHC) was performed after masking of slides by a researcher not involved in the analysis using previously described methods (de Oliveira et al., 2021) using primary antibodies (Table 2) confirmed by western blotting and IHC to recognize rabbit antigens or isotypic control antibodies (ThermoFisher Scientific, Waltham, MA), and secondary fluorescent tagged antibodies (Table 3).
The area of the SMA-positive posterior fibrotic stroma was quantitated with the original groups masked to the analyzer by standardized photography with a 10× objective on a Leica DM6B upright microscope equipped with an automated stage and Leica 7000 T camera using the LAS X software (Leica Microsystems, GmbH, Wetzlar, Germany). […]

[2] = test system: α-SMA-positive myofibroblasts; assay: Alkali burn model: IHC α-SMA-positive stromal area and intensity (ImageJ); type: in vivo, rabbit; settings: one month
Protocol: Alkali injuries were produced in one eye of rabbits with previously published methods^10 using 1N sodium hydroxide (Sigma, St. Louis, MO) in balanced salt solution (BSS, 0.64% sodium chloride, 0.075% potassium chloride, 0.048% calcium chloride dihydrate, […] magnesium chloride hexahydrate, 0.39% sodium acetate trihydrate, 0.17% sodium citrate dihydrate, pH 7.5, Alcon, H. Worth, TX) and a 5 mm diameter circular Whatman No. 1 filter paper (Cat #1001-6508, Fisher Scientific) wetted with 100 μl of 1N NaOH solution. Following the alkali burn injury, the cornea was irrigated profusely with BSS. Each injured cornea also received one drop of ciprofloxacin (Alcon, Ft. Worth, TX, USA) ten minutes after surgery and four times a day for one week and at least 15 minutes apart from the study medications.
Worth TX), at least 5 minutes apart, or 4) 50 μl of BSS. […]
The area of the α-SMA-positive stroma in mm^2 and the total α-SMA opacity in pixels were quantitated using standardized images obtained with a 10× objective on a Leica DM6B upright microscope equipped with an automated stage and Leica 7000 T camera using the LAS X software (Leica Microsystems, GmbH, Wetzlar, Germany). The means of three central corneal sections were analyzed from each cornea to provide the area of α-SMA-positive stroma and the total α-SMA opacity. The area of α-SMA-positive stroma in mm^2 for each cornea was determined from full diameter and thickness central corneal section images (all converted to 300 DPI, 885 width×500 height, files with identical +50% brightness increase in Photoshop for all images) with the ImageJ 1.53a analysis software using the freehand selection tool to delineate the area(s) of α-SMA-positive staining. […] In these same sections for each cornea, the total α-SMA-positive intensity in pixels was also determined with ImageJ, similarly by using the summation if separate α-SMA-positive areas were present. […]

SMILES: CCCCc1nc(Cl)c(CO)n1Cc1ccc(-c2ccccc2-c2nn[nH]n2)cc1 [losartan]
- mean area of the SMA-positive posterior fibrotic area among DMR groups ([1]; DMR, oral losartan alone, one month): highest
- mean SMA-positive posterior fibrotic area compared to the other DMR groups ([1]; DMR, topical 0.4 mg/ml six times a day): significantly lower
- SMA-positive fibrotic zone in the posterior cornea ([1]; DMR, topical 0.4 mg/ml six times per day, one month): marked decrease
- SMA-positive fibrosis in the posterior cornea ([1]; DMR, topical six times per day and oral three times per day, one month): decrease
- SMA-positive posterior corneal fibrosis in uninjured corneas ([1]; oral losartan three times a day): did not develop SMA-positive posterior corneal fibrosis
- SMA-positive posterior corneal fibrosis in uninjured corneas ([1]; topical losartan six times a day): did not develop SMA-positive posterior corneal fibrosis
- total α-SMA area vs vehicle control group [2]: trend
- localization of α-SMA-positive myofibroblasts in the stroma ([2]; topical six times per day): confined mostly to the posterior half of the stroma

— patent US20240350402A1, “TOPICAL DRUG TREATMENT TO PREVENT OR REDUCE CORNEAL SCARRING” (The Cleveland Clinic Foundation, priority 2021, published 2024)
